Like-named read-outs stand apart in the source and are kept apart here. Where a SMILES comes first, the peptide text is derived from it. Bridges are numbered along the chain shown (N, C = ends). [ ]: non-standard residue; d: D form. The star is where a group is joined. hPhe(3,5-F2-4-CF3) = N[C@@H](CCc1cc(F)c(C(F)(F)F)c(F)c1)C(=O)O; hPhe(3-Cl-4-CF3) = N[C@@H](CCc1ccc(C(F)(F)F)c(Cl)c1)C(=O)O; NPrPhe(4-CF3) = CCCN[C@@H](Cc1ccc(C(F)(F)F)cc1)C(=O)O; Abu(4,4,4-F3) = N[C@@H](CC(F)(F)F)C(=O)O; NMeGly(cPent) = CN[C@H](C(=O)O)C1CCCC1; αMeI = CC[C@H](C)[C@](C)(N)C(=O)O; NMeD = CN[C@@H](CC(=O)O)C(=O)O; NMeL = CN[C@@H](CC(C)C)C(=O)O; Pip = O=C(O)[C@@H]1CCCCN1; Morpholide = C1CN(*)CCO1; NMeA = CN[C@@H](C)C(=O)O; Ac5c = NC1(C(=O)O)CCCC1; Aze = O=C(O)[C@@H]1CCN1; NEtG = CCNCC(=O)O; Sar = CNCC(=O)O
Experiments:
[1] = target: GDP-bound KRAS wild-type protein (Homo sapiens, UniProt P01116); assay: Binding to KRAS by surface plasmon resonance (SPR), Single Cycle Kinetics; details: GDP-bound KRAS wild-type protein, read-out: KRAS KD
Sequence of GDP-bound KRAS wild-type protein (P01116 whole entry): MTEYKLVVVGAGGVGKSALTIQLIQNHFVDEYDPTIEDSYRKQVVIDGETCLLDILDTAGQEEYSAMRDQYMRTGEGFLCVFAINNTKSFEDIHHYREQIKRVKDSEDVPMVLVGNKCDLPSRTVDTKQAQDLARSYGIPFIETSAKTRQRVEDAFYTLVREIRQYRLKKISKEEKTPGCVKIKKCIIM

[2] = target: GDP-bound NRAS wild-type protein (Homo sapiens, UniProt P01111); assay: Binding to NRAS by surface plasmon resonance (SPR), Single Cycle Kinetics; details: for NRAS/KRAS (ratio of KD value with respect to NRAS to KD value with respect to KRAS) / NRAS/KRAS (ratio of KD value for NRAS to KD value for KRAS): SPR, GDP-bound NRAS wild-type protein vs GDP-bound KRAS wild-type protein; for NRAS/KRAS (ratio of KD value with respect to GDP-bound NRAS wild-type protein to KD value with respect to KRAS): SPR KD ratio NRAS/KRAS, class symbols
Sequence of GDP-bound NRAS wild-type protein (P01111 whole entry): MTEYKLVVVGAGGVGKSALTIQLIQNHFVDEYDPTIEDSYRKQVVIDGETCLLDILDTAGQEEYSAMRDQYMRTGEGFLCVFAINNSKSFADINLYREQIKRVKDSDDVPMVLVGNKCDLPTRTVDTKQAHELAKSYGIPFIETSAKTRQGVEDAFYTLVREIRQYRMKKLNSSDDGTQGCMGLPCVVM

[3] = target: GDP-bound HRAS wild-type protein (Homo sapiens, UniProt P01112); assay: Binding to HRAS by surface plasmon resonance (SPR), Single Cycle Kinetics; details: for HRAS/KRAS (ratio of KD value with respect to HRAS to KD value with respect to KRAS) / HRAS/KRAS (ratio of KD value for HRAS to KD value for KRAS): SPR, GDP-bound HRAS wild-type protein vs GDP-bound KRAS wild-type protein; for HRAS/KRAS (ratio of KD value with respect to GDP-bound HRAS wild-type protein to KD value with respect to KRAS): SPR KD ratio HRAS/KRAS, class symbols
Sequence of GDP-bound HRAS wild-type protein (P01112 whole entry): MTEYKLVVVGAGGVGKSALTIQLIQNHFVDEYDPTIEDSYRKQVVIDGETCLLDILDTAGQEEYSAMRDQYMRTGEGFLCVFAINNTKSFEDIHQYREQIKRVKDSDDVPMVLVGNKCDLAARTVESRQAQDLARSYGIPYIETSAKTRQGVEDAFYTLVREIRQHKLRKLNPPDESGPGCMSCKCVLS

[4] = SPR Single Cycle Kinetics, 1:1 binding model

SMILES | Kd [1, 4] | NRAS/KRAS (ratio of KD value for NRAS to KD value for KRAS) [2] | HRAS/KRAS (ratio of KD value for HRAS to KD value for KRAS) [3] | NRAS/KRAS (ratio of KD value with respect to GDP-bound NRAS wild-type protein to KD value with respect to KRAS) [2] | HRAS/KRAS (ratio of KD value with respect to GDP-bound HRAS wild-type protein to KD value with respect to KRAS) [3] | further results
CC[C@H](C)[C@@H]1NC(=O)[C@H](CC(C)C)N(C)C(=O)C[C@@H](C(=O)N2CCOCC2)N(C)C(=O)[C@H](C2CCCC2)N(C)C(=O)C2(CCCC2)NC(=O)[C@@H]2CCCN2C(=O)[C@H](CCc2cc(F)c(C(F)(F)F)c(F)c2)NC(=O)CN(C)C(=O)[C@H](Cc2ccc(C(F)(F)F)cc2)N2CCCCC[C@@H](C2=O)N(C)C(=O)[C@H](C)NC1=O [PP0481] | 850 nM |  |  |  |  | NRAS/KRAS (ratio of KD value with respect to NRAS to KD value with respect to KRAS) [2]: B (a compound having 3 or more and less than 10 is denoted as B); HRAS/KRAS (ratio of KD value with respect to HRAS to KD value with respect to KRAS) [3]: B (a compound having 3 or more and less than 10 is denoted as B)
CC[C@H](C)[C@@H]1NC(=O)[C@H](CC(C)C)N(C)C(=O)C[C@@H](C(=O)N2CCOCC2)NC(=O)[C@H](C2CCCC2)N(C)C(=O)C2(CCCC2)NC(=O)[C@@H]2CCCN2C(=O)[C@H](CCc2cc(F)c(C(F)(F)F)c(F)c2)NC(=O)CN(C)C(=O)[C@H](Cc2ccc(C(F)(F)F)cc2)N2CCCCC[C@@H](C2=O)N(C)C(=O)CN(C)C1=O [PP0479] | 29 nM |  |  |  |  | NRAS/KRAS (ratio of KD value with respect to NRAS to KD value with respect to KRAS) [2]: B (a compound having 3 or more and less than 10 is denoted as B); HRAS/KRAS (ratio of KD value with respect to HRAS to KD value with respect to KRAS) [3]: B (a compound having 3 or more and less than 10 is denoted as B)
CCCN1C(=O)CN(C)C(=O)[C@@H]2CCN2C(=O)[C@H]([C@@H](C)CC)NC(=O)[C@H](CC(C)C)N(C)C(=O)C[C@@H](C(=O)N2CCOCC2)N(C)C(=O)[C@H](C2CCCC2)N(C)C(=O)[C@](C)([C@@H](C)CC)NC(=O)[C@@H]2CCCN2C(=O)[C@H](CCc2cc(F)c(C(F)(F)F)c(F)c2)NC(=O)CN(C)C(=O)[C@@H]1Cc1ccc(C(F)(F)F)cc1 [PP0774] ([NMeL]I[Aze][Sar][NPrPhe(4-CF3)][Sar][hPhe(3,5-F2-4-CF3)]P[αMeI][NMeGly(cPent)][NMeD]-Morpholide; lactam N-11) | 17 nM |  |  |  |  | NRAS/KRAS (ratio of KD value with respect to NRAS to KD value with respect to KRAS) [2]: B (a compound having 3 or more and less than 10 is denoted as B); HRAS/KRAS (ratio of KD value with respect to HRAS to KD value with respect to KRAS) [3]: B (a compound having 3 or more and less than 10 is denoted as B)
CCC[C@H]1C(=O)N[C@@H]([C@@H](C)CC)C(=O)N(C)CC(=O)N(C)[C@H]2C/C=C\CCN(C2=O)[C@@H](Cc2ccc(C(F)(F)F)cc2)C(=O)N(C)CC(=O)N[C@@H](CCc2ccc(Cl)c(Cl)c2)C(=O)N2CCOC[C@H]2C(=O)NC2(CC(C)(C)C2)C(=O)N(C)[C@@H](C(CC)CC)C(=O)N(C)[C@H](C(=O)N(C)C)CC(=O)N1C [PP2920] | 4 nM |  |  | AA (a compound having 20 or more is denoted as AA) | A (a compound having 10 or more and less than 20 is denoted as A) | 
CCO[C@@H]1C[C@H]2C(=O)NC3(CC(C)(C)C3)C(=O)N(C)[C@@H](C3CCCC3)C(=O)N(C)[C@H](C(C)C)CC(=O)N(C)[C@@H](CC)C(=O)N[C@@H]([C@@H](C)CC)C(=O)N(C)CC(=O)N(C)[C@H]3C/C=C\CCN(C3=O)[C@@H](CC3CCCCC3)C(=O)N(C)CC(=O)N[C@@H](CCc3cc(F)c(C(F)(F)F)c(F)c3)C(=O)N2C1 [PP1603] |  |  |  |  |  | Kd ([1]; SPR, Single Cycle Kinetics, 1:1 binding model): 5.3 nM; NRAS/KRAS (ratio of KD value for NRAS to KD value for KRAS) ([2]; KD ratio class): B (a compound having 3 or more and less than 10 is denoted as B); HRAS/KRAS (ratio of KD value for HRAS to KD value for KRAS) ([3]; KD ratio class): B (a compound having 3 or more and less than 10 is denoted as B)
CCO[C@@H]1C[C@H]2C(=O)NC3(CCC3)C(=O)N(C)[C@@H](C3CCCC3)C(=O)N(C)[C@H](C(=O)N(C)C)CC(=O)N(C)[C@@H](CC)C(=O)N[C@@H]([C@@H](C)CC)C(=O)N(C)CC(=O)N(C)[C@H]3CCCCN(C3=O)[C@@H](Cc3ccc(C(F)(F)F)cc3)C(=O)N(C)CC(=O)N[C@@H](CCc3c(F)c(F)c(C(F)(F)F)c(F)c3F)C(=O)N2C1 [PP0886] |  | C (A compound having a KD ratio of 0.1 or more and less than 3 is denoted as C) | B (a compound having 3 or more and less than 10 is denoted as B) |  |  | Kd ([1]; SPR, Single Cycle Kinetics): 0.086 nM

The remaining molecules from weak to strong by Kd [1, 4], led by results:

Kd [1, 4] | SMILES | NRAS/KRAS (ratio of KD value for NRAS to KD value for KRAS) [2] | HRAS/KRAS (ratio of KD value for HRAS to KD value for KRAS) [3] | NRAS/KRAS (ratio of KD value with respect to GDP-bound NRAS wild-type protein to KD value with respect to KRAS) [2] | HRAS/KRAS (ratio of KD value with respect to GDP-bound HRAS wild-type protein to KD value with respect to KRAS) [3] | further results
3.1 nM | CCC[C@H]1C(=O)N[C@@H]([C@@H](C)CC)C(=O)N(C)CC(=O)N(C)[C@H]2C/C=C\CCN(C2=O)[C@@H](Cc2ccc(C(F)(F)F)cc2)C(=O)N(C)CC(=O)N[C@@H](CCc2ccc3ccn(C)c3c2)C(=O)N2C[C@H](OCC)C[C@H]2C(=O)NC2(CC(C)(C)C2)C(=O)N(C)[C@@H](C2CCCC2)C(=O)N(C)[C@H](C(=O)N(C)C)CC(=O)N1C [PP2901] |  |  | A (a compound having 10 or more and less than 20 is denoted as A) | A (a compound having 10 or more and less than 20 is denoted as A) | 
1.7 nM | CCCN1C(=O)CN(C)C(=O)CN(CC)C(=O)[C@H]([C@@H](C)CC)NC(=O)[C@H](CC(C)C)N(C)C(=O)C[C@@H](C(=O)N2CCOCC2)N(C)C(=O)[C@H](C2CCCC2)N(C)C(=O)C2(CCCC2)NC(=O)[C@@H]2CCN2C(=O)[C@H](CCc2ccc(C(F)(F)F)c(Cl)c2)NC(=O)CN(C)C(=O)[C@@H]1Cc1ccc(C(F)(F)F)cc1 [PP0294] ([NMeL]I[NEtG][Sar][NPrPhe(4-CF3)][Sar][hPhe(3-Cl-4-CF3)][Aze][Ac5c][NMeGly(cPent)][NMeD]-Morpholide; lactam N-11) | B (a compound having 3 or more and less than 10 is denoted as B) | C (A compound having a KD ratio of 0.1 or more and less than 3 is denoted as C) |  |  | 
1.3 nM | CCO[C@@H]1C[C@H]2C(=O)NC3(CCC3)C(=O)N(C)[C@@H](C3CCCC3)C(=O)N(C)[C@H](C(=O)N(C)C)CC(=O)N(C)[C@@H](CC3CCCC3)C(=O)N[C@@H]([C@@H](C)CC)C(=O)N(C)CC(=O)N(C)[C@H]3C/C=C\CCN(C3=O)[C@@H](Cc3ccc(C)cc3)C(=O)N(C)CC(=O)N[C@@H](CCc3cc(C)c(C(F)F)c(Cl)c3)C(=O)N2C1 [PP2677] |  |  | A (a compound having 10 or more and less than 20 is denoted as A) | A (a compound having 10 or more and less than 20 is denoted as A) | 
0.69 nM | CCCN1C(=O)CN(C)C(=O)CN(C)C(=O)[C@H](CC(F)(F)F)NC(=O)[C@H](CC(C)C)N(C)C(=O)C[C@@H](C(=O)N2CCOCC2)N(C)C(=O)[C@H](C2CCCC2)N(C)C(=O)C2(CCCC2)NC(=O)[C@@H]2CCCN2C(=O)[C@H](CCc2ccc(C(F)(F)F)c(Cl)c2)NC(=O)CN(C)C(=O)[C@@H]1Cc1ccc(C(F)(F)F)cc1 [PP0249] ([NMeL][Abu(4,4,4-F3)][Sar][Sar][NPrPhe(4-CF3)][Sar][hPhe(3-Cl-4-CF3)]P[Ac5c][NMeGly(cPent)][NMeD]-Morpholide; lactam N-11) | B (a compound having 3 or more and less than 10 is denoted as B) | C (A compound having a KD ratio of 0.1 or more and less than 3 is denoted as C) |  |  | 
0.47 nM | CCCN1C(=O)CN(C)C(=O)CN(C)C(=O)[C@H]([C@@H](C)CC)NC(=O)[C@H](CC(C)C)N(C)C(=O)C[C@@H](C(=O)N2CCOCC2)N(C)C(=O)[C@H](C2CCCC2)N(C)C(=O)C2(CCCC2)NC(=O)[C@@H]2CCCCN2C(=O)[C@H](CCc2ccc(C(F)(F)F)c(Cl)c2)NC(=O)CN(C)C(=O)[C@@H]1Cc1ccc(C(F)(F)F)cc1 [PP0263] ([NMeL]I[Sar][Sar][NPrPhe(4-CF3)][Sar][hPhe(3-Cl-4-CF3)][Pip][Ac5c][NMeGly(cPent)][NMeD]-Morpholide; lactam N-11) | B (a compound having 3 or more and less than 10 is denoted as B) | C (A compound having a KD ratio of 0.1 or more and less than 3 is denoted as C) |  |  | 
0.26 nM | CCCN1C(=O)[C@@H]2CCN2C(=O)[C@H](C)N(C)C(=O)[C@H]([C@@H](C)CC)NC(=O)[C@H](CC(C)C)N(C)C(=O)C[C@@H](C(=O)N2CCOCC2)N(C)C(=O)[C@H](C2CCCC2)N(C)C(=O)C2(CCCC2)NC(=O)CN(C)C(=O)[C@H](CCc2ccc(C(F)(F)F)c(Cl)c2)NC(=O)CN(C)C(=O)[C@@H]1Cc1ccc(C(F)(F)F)cc1 [PP0287] ([NMeL]I[NMeA][Aze][NPrPhe(4-CF3)][Sar][hPhe(3-Cl-4-CF3)][Sar][Ac5c][NMeGly(cPent)][NMeD]-Morpholide; lactam N-11) | C (A compound having a KD ratio of 0.1 or more and less than 3 is denoted as C) | C (A compound having a KD ratio of 0.1 or more and less than 3 is denoted as C) |  |  | 
0.052 nM | CCO[C@@H]1C[C@H]2C(=O)NC3(CC(C)(C)C3)C(=O)N(C)[C@@H](C3CCCC3)C(=O)N(C)[C@H](C(=O)N(C)C)CC(=O)N(C)[C@@H](CC(F)(F)F)C(=O)N[C@@H]([C@@H](C)CC)C(=O)N(C)CC(=O)N(C)[C@H]3C/C=C\CCN(C3=O)[C@@H](Cc3ccc(C(F)(F)F)cc3)C(=O)N(C)CC(=O)N[C@@H](CCc3ccc(C(F)(F)F)c(Cl)c3)C(=O)N2C1 [PP2833] |  |  | A (a compound having 10 or more and less than 20 is denoted as A) | A (a compound having 10 or more and less than 20 is denoted as A) | 

From US20240158446A1, “CYCLIC COMPOUND HAVING SELECTIVE INHIBITORY ACTION ON KRAS OVER HRAS AND NRAS” (CHUGAI SEIYAKU KABUSHIKI KAISHA, priority 2021, published 2024)
